Assays:
Caudate [1] = assay: Drug uptake in anesthetized cynomolgus monkey brain caudate after 175 mins postinjection; format: ADME, organism-based, Macaca fascicularis, Caudate nucleus; details: in vivo
Midbrain [2] = assay: Drug uptake in anesthetized cynomolgus monkey brain midbrain after 65 mins postinjection; format: ADME, organism-based, Macaca fascicularis; parameters: unit not given here; details: in vivo
Pons [3] = assay: Drug uptake in anesthetized cynomolgus monkey brain pons after 175 mins postinjection; format: ADME, organism-based, Macaca fascicularis; details: in vivo
Thalamus [4] = assay: Drug uptake in anesthetized cynomolgus monkey brain thalamus after 0.5 mins postinjection; format: ADME, organism-based, Macaca fascicularis; details: in vivo
Caudate [5] = assay: Drug uptake in anesthetized cynomolgus monkey brain caudate after 115 mins postinjection; format: ADME, organism-based, Macaca fascicularis, Caudate nucleus; details: in vivo
Medulla [6] = assay: Drug uptake in anesthetized cynomolgus monkey brain medulla after 2.5 mins postinjection; format: ADME, organism-based, Macaca fascicularis; details: in vivo
Putamen [7] = assay: Drug uptake in anesthetized cynomolgus monkey brain putamen after 15.5 mins postinjection; format: ADME, organism-based, Macaca fascicularis; parameters: unit not given here; details: in vivo
Caudate [8] = assay: Drug uptake in anesthetized cynomolgus monkey brain caudate after 125 mins postinjection; format: ADME, organism-based, Macaca fascicularis, Caudate nucleus; details: in vivo
Thalamus [9] = assay: Drug uptake in anesthetized cynomolgus monkey brain thalamus after 75 mins postinjection; format: ADME, organism-based, Macaca fascicularis; parameters: unit not given here; details: in vivo, 1.25 h
Midbrain [10] = assay: Drug uptake in anesthetized cynomolgus monkey brain midbrain after 9.5 mins postinjection; format: ADME, organism-based, Macaca fascicularis; parameters: unit not given here; details: in vivo
[11] = Ratio of drug uptake in occipital lobe to cerebellum in anesthetized cynomolgus monkey after 105 mins postinjection; format: ADME, organism-based, Macaca fascicularis; details: in vivo, 1.75 h
Midbrain [12] = assay: Drug uptake in anesthetized cynomolgus monkey brain midbrain after 22.5 mins postinjection; format: ADME, organism-based, Macaca fascicularis; parameters: unit not given here; details: in vivo, 0.375 h
Putamen [13] = assay: Drug uptake in anesthetized cynomolgus monkey brain putamen after 65 mins postinjection; format: ADME, organism-based, Macaca fascicularis; parameters: unit not given here; details: in vivo
Midbrain [14] = assay: Drug uptake in anesthetized cynomolgus monkey brain midbrain after 95 mins postinjection; format: ADME, organism-based, Macaca fascicularis; parameters: unit not given here; details: in vivo
[15] = Drug uptake in anesthetized cynomolgus monkey brain frontal lobe after 27.5 mins postinjection; format: ADME, organism-based, Macaca fascicularis; details: in vivo
Caudate [16] = assay: Drug uptake in anesthetized cynomolgus monkey brain caudate after 4.5 mins postinjection; format: ADME, organism-based, Macaca fascicularis, Caudate nucleus; details: in vivo, 0.075 h
Caudate [17] = assay: Drug uptake in anesthetized cynomolgus monkey brain caudate after 135 mins postinjection; format: ADME, organism-based, Macaca fascicularis, Caudate nucleus; details: in vivo, 2.25 h
Thalamus [18] = assay: Drug uptake in anesthetized cynomolgus monkey brain thalamus after 215 mins postinjection; format: ADME, organism-based, Macaca fascicularis; parameters: unit not given here; details: in vivo
[19] = Drug uptake in anesthetized cynomolgus monkey brain frontal lobe after 2.5 mins postinjection; format: ADME, organism-based, Macaca fascicularis; details: in vivo
Medulla [20] = assay: Drug uptake in anesthetized cynomolgus monkey brain medulla after 22.5 mins postinjection; format: ADME, organism-based, Macaca fascicularis; details: in vivo, 0.375 h
[21] = Ratio of drug uptake in occipital lobe to cerebellum in anesthetized cynomolgus monkey after 115 mins postinjection; format: ADME, organism-based, Macaca fascicularis; details: in vivo
[22] = Drug uptake in anesthetized cynomolgus monkey brain cerebellum after 12.5 mins postinjection; format: ADME, organism-based, Macaca fascicularis; details: in vivo
[23] = Drug uptake in anesthetized cynomolgus monkey brain frontal lobe after 95 mins postinjection; format: ADME, organism-based, Macaca fascicularis; details: in vivo
[24] = Ratio of drug uptake in midbrain to cerebellum in anesthetized cynomolgus monkey after 2.5 mins postinjection; format: ADME, organism-based, Macaca fascicularis; details: in vivo
Putamen [25] = assay: Drug uptake in anesthetized cynomolgus monkey brain putamen after 225 mins postinjection; format: ADME, organism-based, Macaca fascicularis; details: in vivo, 3.75 h
[26] = Drug uptake in anesthetized cynomolgus monkey brain cerebellum after 225 mins postinjection; format: ADME, organism-based, Macaca fascicularis; details: in vivo, 3.75 h
[27] = Ratio of drug uptake in pons to cerebellum in anesthetized cynomolgus monkey after 145 mins postinjection; format: ADME, organism-based, Macaca fascicularis; details: in vivo
Caudate [28] = assay: Drug uptake in anesthetized cynomolgus monkey brain caudate after 12.5 mins postinjection; format: ADME, organism-based, Macaca fascicularis, Caudate nucleus; details: in vivo
Caudate [29] = assay: Drug uptake in anesthetized cynomolgus monkey brain caudate after 3.5 mins postinjection; format: ADME, organism-based, Macaca fascicularis, Caudate nucleus; details: in vivo
Caudate [30] = assay: Drug uptake in anesthetized cynomolgus monkey brain caudate after 0.5 mins postinjection; format: ADME, organism-based, Macaca fascicularis, Caudate nucleus; details: in vivo
[31] = Ratio of drug uptake in thalamus to cerebellum in anesthetized cynomolgus monkey after 155 mins postinjection; format: ADME, organism-based, Macaca fascicularis; details: in vivo
Pons [32] = assay: Drug uptake in anesthetized cynomolgus monkey brain pons after 155 mins postinjection; format: ADME, organism-based, Macaca fascicularis; details: in vivo
[33] = Ratio of drug uptake in frontal lobe to cerebellum in anesthetized cynomolgus monkey after 75 mins postinjection; format: ADME, organism-based, Macaca fascicularis; details: in vivo, 1.25 h
Medulla [34] = assay: Drug uptake in anesthetized cynomolgus monkey brain medulla after 6.5 mins postinjection; format: ADME, organism-based, Macaca fascicularis; details: in vivo
[35] = Ratio of drug uptake in medulla to cerebellum in anesthetized cynomolgus monkey after 65 mins postinjection; format: ADME, organism-based, Macaca fascicularis; details: in vivo
Thalamus [36] = assay: Drug uptake in anesthetized cynomolgus monkey brain thalamus after 175 mins postinjection; format: ADME, organism-based, Macaca fascicularis; parameters: unit not given here; details: in vivo
Caudate [37] = assay: Drug uptake in anesthetized cynomolgus monkey brain caudate after 15.5 mins postinjection; format: ADME, organism-based, Macaca fascicularis, Caudate nucleus; details: in vivo
Midbrain [38] = assay: Drug uptake in anesthetized cynomolgus monkey brain midbrain after 165 mins postinjection; format: ADME, organism-based, Macaca fascicularis; details: in vivo, 2.75 h
Midbrain [39] = assay: Drug uptake in anesthetized cynomolgus monkey brain midbrain after 15.5 mins postinjection; format: ADME, organism-based, Macaca fascicularis; parameters: unit not given here; details: in vivo
Midbrain [40] = assay: Drug uptake in anesthetized cynomolgus monkey brain midbrain after 3.5 mins postinjection; format: ADME, organism-based, Macaca fascicularis; parameters: unit not given here; details: in vivo
[41] = Ratio of drug uptake in pons to cerebellum in anesthetized cynomolgus monkey after 105 mins postinjection; format: ADME, organism-based, Macaca fascicularis; details: in vivo, 1.75 h
Putamen [42] = assay: Drug uptake in anesthetized cynomolgus monkey brain putamen after 95 mins postinjection; format: ADME, organism-based, Macaca fascicularis; parameters: unit not given here; details: in vivo
[43] = Drug uptake in anesthetized cynomolgus monkey brain cerebellum after 95 mins postinjection; format: ADME, organism-based, Macaca fascicularis; details: in vivo

SMILES: O=C(OCC[18F])C1C2CCC(CC1c1cccc(/C=C\I)c1)N2 (stereo not drawn)
- Drug uptake (Caudate [1]): 2.43
- Drug uptake (Midbrain [2]): 4.91
- Drug uptake (Pons [3]): 2.36
- Drug uptake (Thalamus [4]): 0
- Drug uptake (Caudate [5]): 3.17
- Drug uptake (Medulla [6]): 0.52
- Drug uptake (Putamen [7]): 3.61
- Drug uptake (Caudate [8]): 3
- Drug uptake (Thalamus [9]): 4.16
- Drug uptake (Midbrain [10]): 3.52
- Ratio [11]: 1
- Drug uptake (Midbrain [12]): 4.56
- Drug uptake (Putamen [13]): 4.36
- Drug uptake (Midbrain [14]): 4.55
- Drug uptake [15]: 2.82
- Drug uptake (Caudate [16]): 1.23
- Drug uptake (Caudate [17]): 2.87
- Drug uptake (Thalamus [18]): 2.38
- Drug uptake [19]: 0.28
- Drug uptake (Medulla [20]): 3.83
- Ratio [21]: 0.9
- Drug uptake [22]: 3.71
- Drug uptake [23]: 2.53
- Ratio [24]: 1.2
- Drug uptake (Putamen [25]): 2.44
- Drug uptake [26]: 1.26
- Ratio [27]: 1.4
- Drug uptake (Caudate [28]): 2.74
- Drug uptake (Caudate [29]): 0.79
- Drug uptake (Caudate [30]): 0
- Ratio [31]: 1.8
- Drug uptake (Pons [32]): 2.5
- Ratio [33]: 0.9
- Drug uptake (Medulla [34]): 2.75
- Ratio [35]: 1.2
- Drug uptake (Thalamus [36]): 2.76
- Drug uptake (Caudate [37]): 2.94
- Drug uptake (Midbrain [38]): 3.53
- Drug uptake (Midbrain [39]): 4.07
- Drug uptake (Midbrain [40]): 1.19
- Ratio [41]: 1.3
- Drug uptake (Putamen [42]): 4.02
- Drug uptake [43]: 2.61

From ChEMBL document CHEMBL1151757, “Synthesis, radiosynthesis, and biological evaluation of fluorine-18-labeled 2beta-carbo(fluoroalkoxy)-3beta-(3'-((Z)-2-haloethenyl)phenyl)nortropanes: candidate radioligands for in vivo imaging of the serotonin transporter with positron emission tomography” (J Med Chem, 2008)
